From patent publication US10150804B2, “Compositions and methods for imaging cancer” (BRITISH COLUMBIA CANCER AGENCY BRANCH, priority 2014, dated 2018) come the findings set out here.

Where two headings read alike, the source gives them in different places.

Series [1] is described as follows: 19F-NMR kinetic analysis of solvolysis/defluoridation of AMBF3. The series is classed as physicochemical. Here is the method: Data are scaled 1000,000 min.
A further series has as its target T1, sstr1 (Homo sapiens, UniProt P30872).
T1 construct: purchased PerkinElmer; host or cells: Chinese hamster ovary K1 cells (transfected)
In words: standard filtration competitive binding assay, sstr1 membranes. The conditions noted are these: 0.2 nM 125I standard. Here is the method: After successful synthesis, the activity of ^19F-AMBF3-TATE was examined in vitro. Membranes from Chinese hamster ovary K1 cells transfected with sstr1, sstr2, sstr3, sstr5, and [^125I]-Tyr-somatostatin-14 were obtained from PerkinElmer. […] Briefly, membranes ([…]) were incubated with the ^125I-labelled standard at a concentration of 0.05 nM for sstr2 or 0.2 nM for other subtypes. […] After incubation (37° C., 1 h), the wells were aspirated and washed 8 times with 50 mM ice-cold buffer (Tris-HCl, pH 7.4) over grade GF/B filters. The filters were removed and counted by a γ counter (Cobra II; Packard). Data were fitted to a 1-site competition model (GraphPad Prism 6.1 software) to calculate Ki.

Series [2] relates to AR42J tumour-bearing mice. The settings on record: excess competitor 69/71Ga-DOTATATE
Method: After labelling, imaging was undertaken. […] Rat pancreatic adenocarcinoma cells (10^7 AR42J cells) were freshly expanded in a mixture of phosphate-buffered saline and Matrigel (Corning) and inoculated subcutaneously in female immunocompromised mice (NOD SCID [non-obese diabetic severe combined immunodeficient] IL2r-γ-null, bred in house). The tumours were grown for 2 wk until they reached 5-7 mm in diameter. […] Sixty minutes after injection, the mice were anesthetized with isoflurane and euthanized by carbon dioxide. The organs were harvested, rinsed with saline, blotted dry, and collected in previously weighed tubes. The tubes containing the organs were counted in a Cobra-II γ counter. The tissue weight and associated count per minute were used to calculate the percentage injected dose per gram of tissue (% ID/g). Images were acquired using a multimodality PET/CT system (Inveon; Siemens).

T1 sequence (P30872 whole entry): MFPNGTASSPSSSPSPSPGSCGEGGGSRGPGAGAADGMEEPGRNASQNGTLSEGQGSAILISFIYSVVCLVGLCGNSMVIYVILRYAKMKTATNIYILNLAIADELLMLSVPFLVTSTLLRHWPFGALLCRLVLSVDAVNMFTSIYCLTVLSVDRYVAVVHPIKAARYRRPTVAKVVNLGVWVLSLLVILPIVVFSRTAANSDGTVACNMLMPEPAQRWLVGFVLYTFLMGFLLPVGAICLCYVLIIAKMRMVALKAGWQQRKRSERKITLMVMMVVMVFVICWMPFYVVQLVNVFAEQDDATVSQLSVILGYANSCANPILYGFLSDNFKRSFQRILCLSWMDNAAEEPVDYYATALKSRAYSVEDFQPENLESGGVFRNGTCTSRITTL

Turning to `C#CC[N+](C)(C)C[B-](F)(F)F` [alkynyl-AMBF3, N-propargyl-N,N-dimethyl-ammoniomethyltrifluoroborate], the half-life in series [1] (19F NMR, read-out: solvolysis t1/2 (converted)) is 312 h; in series [1] (19F-NMR, first-order fit (FIG. 10), read-out: half-life of defluoridation), 0.325 h.

With `C[C@@H](O)[C@H](NC(=O)[C@@H]1CSSC[C@H](NC(=O)[C@@H](Cc2ccccc2)NC(=O)Cn2cc(C[N+](C)(C)C[B-](F)(F)F)nn2)C(=O)N[C@@H](Cc2ccc(O)cc2)C(=O)N[C@H](Cc2c[nH]c3ccccc23)C(=O)N[C@@H](CCCCN)C(=O)N[C@@H]([C@@H](C)O)C(=O)N1)C(=O)O` [AMBF3-TATE], the “displacement of binding to sstr1” value on sstr1 is given as “No significant displacement”.

Regarding ^18F-AMBF3-TATE, the “blocking efficiency (tumour uptake)” value in series [2] was determined as 97%.
